Like-named read-outs stand apart in the source and are kept apart here. Bounds are passed on as bounds.

The test system of one series is HLMEC. The arrangement: method as in PMID 24859537. Particulars: HLMEC cell line; cited from earlier work.
Series [1] concerns SufA. More on the design: method as in PMID 24859537. Particulars: cited from earlier work.
The test system of series [2] is SufA. The arrangement: method as in PMID 24859537. Particulars: cited from earlier work. The source holds these as a separate data set.
The subject of the next series is BALB/3T3. More on the design: method as in PMID 24859537. The note with it: BALB/3T3 cell line; cited from earlier work.
The next series has as its system SplA protease. More on the design: method as in PMID 24375505. Particulars: cited from earlier work.
The test system of series [3] is SufA protease. Kind of series: Inhibition of SufA-mediated degradation of human fibrinogen (SDS-PAGE). The series is classed as biochemical, Finegoldia magna. Particulars: SufA 25 µg/mL, inhibitor 1.3 mM, pre-incubation 60 min 37°C, SDS-PAGE reducing. As for the experimental part:
(§1) The SufA protease was incubated with the specific SufA inhibitor for 60 min at 37°C, maintaining a constant DMSO concentration of 1%. The reference sample contained an appropriate amount of DMSO instead of the inhibitor. After incubation, fibrinogen and LL-37 proteins were added to each sample of enzyme (25 µg/mL) or enzyme with inhibitor (25 µg/mL, 1.3 mM). Samples were analyzed by PAGE using the standard Laemmli protocol for fibrinogen and the procedure developed by Judd for the LL-37 peptide. Raw gel results of the inhibition of SufA-induced degradation of human fibrinogen and LL-37 by tested inhibitors after SDS-PAGE electrophoresis analysis are presented in Supplementary Biochemical Part S1-S2 and Figures S9–S11.

A further series relates to ctDNA. Kind of series: DNA intercalation by circular dichroism spectroscopy. The series is classed as binding, ox. The note with it: inhibitor 100 µM, ctDNA 50 µM, 1% DMSO. As for the experimental part: The measurement parameters were set as follows: the wavelength range was set from 220 nm to 320 nm, step – at every 0.2 nm, and 4 accumulations. Measurements were performed in a Justcode M cuvette with an optical path of 1 mm. 200 μL of the analyzed solution was introduced into the cuvette each time. The apparatus was zeroed using phosphate buffer with the following composition: 150 mM NaCl, 20 mM PB, 1 mM EDTA. Afterward, the samples (maintaining a constant DMSO concentration of 1%) of ctDNA (50 µM), inhibitor (100 µM), and inhibitor (100 µM) with ctDNA (50 µM) were prepared. First, a sample of the ctDNA solution was measured with a CD spectrometer to check the graph for pure DNA. Then, a sample of the inhibitor solution was measured, against which the apparatus was blanked because the inhibitor molecule itself could produce a CD effect, potentially falsifying the results. At the end, a sample of the actual solution containing the inhibitor and ctDNA was measured.
On the technique in general: Circular dichroism is widely used to follow secondary structure.

The test system of series [4] is SufA protease. Briefly: Inhibition of SufA-mediated degradation of human antimicrobial peptide LL-37 (PAGE). The series is classed as biochemical, Finegoldia magna. The note with it: SufA 25 µg/mL, inhibitor 1.3 mM, pre-incubation 60 min 37°C. On the procedure:
as §1

For series [5], the system named is SufA protease. Briefly: SufA inhibition studies (fluorogenic substrate ABZ-Ile-Ser-Lys-ANB, progress curve method). The series is classed as biochemical, Finegoldia magna. On the procedure:
The assays were performed at 37°C with an excitation wavelength of 320 nm for ABZ and an emission wavelength of 410 nm using 96-well microtiter plates (COSTAR, Corning Inc., Gdańsk, Poland) in 0.1 M Tris-HCl (pH 8.0) with 0.01 M KCl. The concentrations of substrate (ABZ-Ile-Ser-Lys-ANB) and SufA protease were 25 µM and 4 µg/mL, respectively. The SufA protease was incubated for 10 min with the tested compound, dissolved in DMSO (inhibitor final concentration ranging from 0 to 300 µM), and then the measurement was taken for 10 min. Each assay was performed in at least duplicate. The inhibitory activity was measured, and the percentage of inhibition was calculated with the equation: % inhibition = RFUtest / RFU− ∗ 100%,
where RFU represents the relative fluorescence units, test refers to the signal from reactions containing an inhibitor, and (-) represents the signal from the control reactions (without an inhibitor). The inhibitory effects of the synthesized compounds were evaluated by means of the progress curve method.
where [P] is the product concentration at time t, vi is the initial velocity, and vs is the steady state velocity. […]

Another series has as its system S. aureus PCM 2602. Kind of series: Antibacterial activity, growth reduction (OD600, 24 h). The class given is cell-based. Particulars: Staphylococcus aureus, PCM2602, MH broth. On the procedure: (§2) The antibacterial properties of the inhibitors were assessed in Mueller-Hinton (MH) broth at 37°C for E. coli, S. marcescens, and S. aureus. For F. magna, the antibacterial properties of the inhibitors were tested in Todd Hewitt broth at 37°C under anaerobic conditions. An overnight culture of the tested bacteria was diluted 200-fold in fresh medium and incubated at 37°C until the OD600 reached 0.3. Subsequently, 100 µL of the inhibitor and antibiotic control (at concentrations ranging from 0 to 250 µg/mL) were added to 900 µL of bacterial culture, which had been previously diluted to an OD600 of less than 0.01. The resulting samples were incubated for 24 h at 37°C with shaking at 100 rpm. Then, 200 µL of each sample was transferred to a well plate, and the absorbance was measured at a wavelength of 600 nm using a microplate reader. To determine the antibacterial properties of the inhibitors, the data were normalized against a control culture (without inhibitor or antibiotics). The IC50 values were calculated using GraphPad Prism through nonlinear regression, employing the following equation model: Y=YBottom+(YTop−YBottom)/(1+10^∧((LogIC50−X)∗(−1.0))),
(§3) where YBottom and YTop represent the plateaued units of the Y-axis. The IC50 value represents the concentration that produces a half-maximal response between YBottom and YTop, thus measuring the potency of a compound in inhibiting bacterial viability and indicating a 50% reduction in bacterial growth. The effect of gentamicin on bacterial growth reduction, including its IC50 values, can be found in the Supplementary Material (Supplementary Microbiology Part S1, Figures S12)

The subject of a further series is E. coli PCM 2561. The description is as above. The class given is cell-based. The note with it: Escherichia coli, PCM2561, MH broth. As for the experimental part: as §2, §3
The next series concerns F. magna PCM 2822. The description is as above. The series is classed as cell-based. The note with it: Finegoldia magna, read-out: IC50 growth reduction. As for the experimental part:
as §2, §3

In a further series the test system is S. marcescens PCM 549. The series is described as above. The note with it: Serratia marcescens, read-out: IC50 growth reduction. The class given is cell-based. As for the experimental part:
as §2, §3

The subject of another series is S. aureus. The note with it: read-out: literature IC50; cited from earlier work.
The subject of a further series is E. coli. Particulars: read-out: literature IC50; cited from earlier work.

On to `N=C(N)c1ccc2cc(C(NC(=O)OCc3ccccc3)P(=O)(Oc3ccccc3)Oc3ccccc3)ccc2c1` (stereo not drawn) [Cbz-6-AmNpth^P(OC6H5)2], for which the Cytotoxicity entry in the series on HLMEC and in the series with BALB/3T3 was “no significant cytotoxicity” in each case. Moreover, the k2/Ki in the series on SufA [1] is recorded as 10,800 M^− 1 s^− 1. The “Inhibition of degradation of fibrinogen” value with SufA [2] was “completely inhibited the degradation of fibrinogen”.
Turning to `CC(C)CC(NC(=O)C1CCCN1C(=O)C(NC(=O)OCc1ccccc1)C(C)C)P(=O)(Oc1ccc(S(C)(=O)=O)cc1)Oc1ccc(S(C)(=O)=O)cc1` (stereo not drawn) [Cbz-Val-Pro-Leu^P(OC6H4-4-SOOCH3)2], the k2/Ki in the series with SplA protease was over 8000 M⁻¹ s⁻¹.
Regarding `CC(C)C(NC(=O)OCc1ccccc1)C(=O)N1CCCC1C(=O)NC(Cc1ccccc1)P(=O)(Oc1ccc(S(C)(=O)=O)cc1)Oc1ccc(S(C)(=O)=O)cc1` (stereo not drawn) [Cbz-Val-Pro-Phe^P(OC6H4-4-SOOCH3)2], the k2/Ki with SplA protease was over 8000 M⁻¹ s⁻¹.
Take `CSc1ccc(OP(=O)(Oc2ccc(SC)cc2)C(NC(=O)OCc2ccccc2)c2ccc3cc(C(=N)N)ccc3c2)cc1` (stereo not drawn) [Compound 8a, Cbz-6-AmNphth^P(OC6H4-4-SCH3)2]: the “Inhibition of SufA-induced degradation of human fibrinogen” value (shortened to “Inhibition … of human fibrinogen”) in the series on SufA protease [3] is given as “completely prevented fibrinogen degradation”. Moreover, the “DNA intercalation (change of CD spectrum of ctDNA)” value with ctDNA was “does not induce DNA intercalation”. In addition, the “Inhibition of SufA-induced degradation of LL-37” value in the series on SufA protease [4] was “inhibition of LL-37 cleavage”. Also, in the series with SufA protease [5] (second-order rate constant, 37°C, pH 8.0), the k2/Ki stood at 1500 M⁻¹ s⁻¹. For the same molecule, the 50% inhibitory concentration (IC50) (commonly the concentration needed to halve the response being measured) with S. aureus PCM 2602 is 2.65 µM; with E. coli PCM 2561 it was 28.2 µM; in the series with F. magna PCM 2822 (PCM2822, Todd Hewitt broth, anaerobic, 24 h), 20 nM; with S. marcescens PCM 549 (PCM549, 24 h) it was 20 nM.
Turning to `COc1ccc(OP(=O)(Oc2ccc(OC)cc2)C(NC(=O)OCc2ccccc2)c2ccc3cc(C(=N)N)ccc3c2)cc1` (stereo not drawn) [Compound 8b, Cbz-6-AmNphth^P(OC6H4-4-OCH3)2], the “Inhibition … of human fibrinogen” value with SufA protease [3] is reported as “weaker inhibitory effect on fibrinogen degradation”. For the same molecule, the IC50 in the series on S. aureus PCM 2602 is 19.2 µM; in the series with E. coli PCM 2561, over 150 µM; in the series with F. magna PCM 2822 (PCM2822, 24 h), 40 nM; in the series with S. marcescens PCM 549 (PCM549, 24 h) it was 480 nM.
As to `COC(=O)c1ccc(OP(=O)(Oc2ccc(C(=O)OC)cc2)C(NC(=O)OCc2ccccc2)c2ccc3cc(C(=N)N)ccc3c2)cc1` (stereo not drawn) [Compound 8c, Cbz-6-AmNphth^P(OC6H4-4-COOCH3)2], in the series on SufA protease [3], the “Inhibition … of human fibrinogen” value is given as “weaker inhibitory effect on fibrinogen degradation”. Further, in the series on SufA protease [5] (cmpd. conc. 50 μM), the “% SufA inhibition” value is reported as under 50%. For the same molecule, the IC50 was over 150 µM in the series with S. aureus PCM 2602; 60.9 µM in the series on E. coli PCM 2561; 6980 nM in the series on F. magna PCM 2822 (PCM2822, 24 h); under 10 nM in the series with S. marcescens PCM 549 (PCM549, 24 h).
As for `CC1(C)S[C@@H]2[C@H](NC(=O)[C@H](N)c3ccccc3)C(=O)N2[C@H]1C(=O)O` [ampicillin], the half-inhibitory concentration (IC50) in the series on S. aureus was 180 nM; with E. coli, 10.1 µM.
On to `O=C(N[C@H](CO)[C@H](O)c1ccc([N+](=O)[O-])cc1)C(Cl)Cl` [chloramphenicol], for which the figures for the IC50 with S. aureus and in the series on E. coli were 1590 nM and 373 µM, respectively.
Regarding `CNC(C)C1CCC(N)C(OC2C(N)CC(N)C(OC3OCC(C)(O)C(NC)C3O)C2O)O1` (stereo not drawn) [gentamicin, reference compound], the IC50 in the series with S. marcescens PCM 549 (PCM549, MH broth, 24 h) was found to be 251 nM.
